According to publication PMC12068666, “Synthesis of thiazole-integrated pyrrolotriazinones: evaluations of cytotoxicity and effects on PI3K levels in cancer cells” (Turkish Journal of Chemistry, 2025):
Entries after “also recorded” stand apart in the source; their conditions may differ.

Experiments:
MCF-7 cells = experiment: MTT assay, antiproliferative activity, MCF-7; assay type: cell-based, human; conditions: for IC50: Homo sapiens, MCF7, MTT, 24 h treatment, mean ± SD; for Selectivity Index (SI) MCF-7: IC50 of healthy cells (NIH/3T3)/IC50 of cancer cells
Experimental: (§1) MCF-7 (human ER + breast cancer, HTB-22, USA), A549 (human nonsmall cell lung cancer, ATTC CRM-CCL-185, USA), HepG2 (human liver cancer, ATTC HB-8065, USA), and NIH/3T3 (mouse embryonic fibroblast, ATCC, CRL-1658, USA) cells were maintained in DMEM supplemented with 10% fetal bovine serum and 1% penicillin/streptomycin. The cells were maintained under appropriate conditions (37 °C, 5% CO2).
(§2) The antiproliferative activity of the newly synthesized compounds was measured using the MTT assay as described in a previous study. Briefly, cells were seeded at a density of 6 × 10^3 cells/well and incubated for 24 h in a 37 °C humidified incubator with 5% CO2. Afterwards, the cells were treated with increasing concentrations (1, 2.5, 5, 10, 25, 50, 75, and 100 μM) of compounds and incubated for another 24 h. Moreover, some cells were incubated with doxorubicin (1, 5, 10, 25, and 50 μM) for comparison, while other cells treated only with 1% DMSO was used as the solvent control. After incubation, 20 μL of MTT solution (5 mg/mL in PBS) was added to each well, and the plate was incubated for 4 h under the same conditions. Following this period, the medium was discarded and replaced with DMSO. The absorbance of dissolved formazan crystals was measured using a multiplate reader. The IC50 value and the selectivity index of each compound were calculated as previously described.
(§3) The antiproliferative effect of all newly synthesized thiazole-integrated pyrrolotriazinone derivatives were assessed against cancer cell lines (MCF-7, A549, and HepG2) as well as a healthy cell line (NIH/3T3) using the MTT assay. The IC50 values were determined through the nonlinear regression algorithm for log (inhibitor) versus normalized response-variable slope, as implemented in GraphPad [Y = 100/(1 + 10^X−LogIC50), where X represents the logarithm of the inhibitor concentration and Y denotes the response]. Additionally, Selectivity Indices (SI: IC50 of healthy cells/IC50 of cancer cells) were calculated.

A549 cells = experiment: MTT assay, antiproliferative activity, A549; assay type: cell-based, human; conditions: for IC50: Homo sapiens, A549, MTT, 24 h treatment, mean ± SD; for Selectivity Index (SI) A549: IC50 of healthy cells (NIH/3T3)/IC50 of cancer cells
Experimental: as §1, §2, §3

HepG2 cells = experiment: MTT assay, antiproliferative activity, HepG2; assay type: cell-based, human; conditions: for IC50: Homo sapiens, HepG2, MTT, 24 h treatment, mean ± SD; for Selectivity Index (SI) HepG2: IC50 of healthy cells (NIH/3T3)/IC50 of cancer cells
Experimental: as §1, §2, §3

NIH/3T3 cells = experiment: MTT assay, healthy cell line NIH/3T3; assay type: cell-based; conditions: Mus musculus, NIH3T3, 24 h treatment, mean ± SD
Experimental: as §1, §2, §3

PI3K [1] = experiment: PI3K protein levels by ELISA in MCF-7 cells; assay type: cell-based, human; conditions: IC50 concentration, 24 h, compared to 1% DMSO control
Experimental: (§4) The protein levels of PI3K in MCF-7 and HepG2 cells were assessed using enzyme-linked immunosorbent assay (ELISA) kits. […] After the incubation period, the medium was collected, and PI3K protein levels were measured using ELISA kits according to the manufacturer’s instructions (Cat no: ELK9879, ELK Biotechnology, Denver, USA).

PI3K [2] = experiment: PI3K protein levels by ELISA in HepG2 cells; assay type: cell-based, human; conditions: IC50 concentration, 24 h, compared to 1% DMSO control
Experimental: as §4

Row | IC50 (MCF-7 cells) | IC50 (A549 cells) | IC50 (HepG2 cells) | SMILES | Selectivity Index (SI) MCF-7 (MCF-7 cells) | Selectivity Index (SI) A549 (A549 cells) | Selectivity Index (SI) HepG2 (HepG2 cells) | IC50 (NIH/3T3 cells) | PI3K protein levels in MCF-7 cells (PI3K [1]) | PI3K protein levels in HepG2 cells (PI3K [2])
1 | 55.6 ± 1.05 µM | 71.2 ± 0.74 µM | 51.85 ± 0.23 µM | O=c1n(-c2nc(-c3ccc(Br)cc3)cs2)ncc2cccn12 [Compound 22, 3-(4-(4-bromophenyl)thiazol-2-yl)pyrrolo[1,2-d][1,2,4]triazin-4(3H)-one] | 1.68 | 1.31 | 1.80 | 93.46 ± 0.74 µM | – | –
2 | > 100 µM | > 100 µM | > 100 µM | O=c1n(-c2nc(-c3ccc(O)cc3)cs2)ncc2cccn12 [Compound 16, 3-(4-(4-hydroxyphenyl)thiazol-2-yl)pyrrolo[1,2-d][1,2,4]triazin-4(3H)-one] | 1.10 | 1.32 | 1.02 | > 100 µM | – | –
3 | 14.2 ± 0.42 µM | 25.2 ± 0.39 µM | 15.1 ± 0.61 µM | O=c1n(-c2nc(-c3ccc(F)c(Cl)c3)cs2)ncc2cccn12 [Compound 26, 3-(4-(3-chloro-4-fluorophenyl)thiazol-2-yl)pyrrolo[1,2-d][1,2,4]triazin-4(3H)-one] | – | 5.53 | 9.22 | > 100 µM | significantly reduced | –
4 | 79.19 ± 0.61 µM | > 100 µM | > 100 µM | O=c1n(-c2nc(-c3ccc([N+](=O)[O-])cc3)cs2)ncc2cccn12 [Compound 18, 3-(4-(4-nitrophenyl)thiazol-2-yl)pyrrolo[1,2-d][1,2,4]triazin-4(3H)-one] | 2.08 | 1.51 | 1.60 | > 100 µM | – | –
5 | > 100 µM | > 100 µM | > 100 µM | Cc1ccc(-c2csc(-n3ncc4cccn4c3=O)n2)cc1 [Compound 15, 3-(4-(p-tolyl)thiazol-2-yl)pyrrolo[1,2-d][1,2,4]triazin-4(3H)-one] | 1.01 | 0.84 | 0.85 | > 100 µM | – | –
6 | > 100 µM | > 100 µM | > 100 µM | Cc1csc(-n2ncc3cccn3c2=O)n1 [Compound 13, 3-(4-methylthiazol-2-yl)pyrrolo[1,2-d][1,2,4]triazin-4(3H)-one] | 1.01 | 0.94 | 1.32 | > 100 µM | – | –
7 | > 100 µM | > 100 µM | > 100 µM | O=c1n(-c2nc(-c3ccc4ccccc4c3)cs2)ncc2cccn12 [Compound 29, 3-(4-(naphthalen-2-yl)thiazol-2-yl)pyrrolo[1,2-d][1,2,4]triazin-4(3H)-one] | 1.03 | 1.19 | 1.26 | > 100 µM | – | –
8 | 63.17 ± 0.35 µM | 78.23 ± 0.05 µM | 44.8 ± 1.06 µM | O=c1n(-c2nc(-c3ccc(-c4ccccc4)cc3)cs2)ncc2cccn12 [Compound 28, 3-(4-([1,1′-biphenyl]-4-yl)thiazol-2-yl)pyrrolo[1,2-d][1,2,4]triazin-4(3H)-one] | 2.79 | 2.25 | 3.93 | > 100 µM | – | –
9 | > 100 µM | > 100 µM | > 100 µM | O=c1n(-c2nc(-c3ccccc3)cs2)ncc2cccn12 [Compound 14, 3-(4-phenylthiazol-2-yl)pyrrolo[1,2-d][1,2,4]triazin-4(3H)-one] | 0.96 | 1.25 | 1.04 | > 100 µM | – | –
10 | 15.2 ± 0.183 µM | 43.3 ± 1.09 µM | 17.2 ± 0.81 µM | COc1ccc(-c2csc(-n3ncc4cccn4c3=O)n2)cc1OC [Compound 23, 3-(4-(3,4-dimethoxyphenyl)thiazol-2-yl)pyrrolo[1,2-d][1,2,4]triazin-4(3H)-one] | 5.49 | – | 4.85 | 83.44 ± 0.15 µM | – | –
11 | 39.8 ± 0.54 µM | 44.5 ± 0.51 µM | 69.7 ± 1.26 µM | O=c1n(-c2nc(-c3ccc(F)cc3)cs2)ncc2cccn12 [Compound 20, 3-(4-(4-fluorophenyl)thiazol-2-yl)pyrrolo[1,2-d][1,2,4]triazin-4(3H)-one] | 4.93 | 4.41 | 2.81 | > 100 µM | – | –
12 | 9.23 ± 1.09 µM | 37.2 ± 1.15 µM | 6.18 ± 0.63 µM | O=c1n(-c2nc(-c3ccc(Cl)cc3Cl)cs2)ncc2cccn12 [Compound 27, 3-(4-(2,4-dichlorophenyl)thiazol-2-yl)pyrrolo[1,2-d][1,2,4]triazin-4(3H)-one] | 10.30 | 2.83 | – | > 100 µM | significantly reduced; also recorded: reduced PI3K levels; also recorded: significant reduction in PI3K protein levels | markedly diminished; also recorded: reduced PI3K levels; also recorded: significant reduction in PI3K protein levels
13 | > 100 µM | > 100 µM | > 100 µM | O=c1n(-c2nc(-c3cc4ccccc4o3)cs2)ncc2cccn12 [Compound 30, 3-(4-(benzofuran-2-yl)thiazol-2-yl)pyrrolo[1,2-d][1,2,4]triazin-4(3H)-one] | 1.57 | 1.51 | 1.90 | > 100 µM | – | –
14 | 33.2 ± 0.49 µM | 45.23 ± 0.41 µM | 25.3 ± 1.06 µM | O=c1n(-c2nc(-c3ccc(F)c(F)c3)cs2)ncc2cccn12 [Compound 24, 3-(4-(3,4-difluorophenyl)thiazol-2-yl)pyrrolo[1,2-d][1,2,4]triazin-4(3H)-one] | 4.72 | 3.46 | 6.19 | > 100 µM | – | –
15 | > 100 µM | > 100 µM | > 100 µM | COc1ccc(-c2csc(-n3ncc4cccn4c3=O)n2)cc1 [Compound 17, 3-(4-(4-methoxyphenyl)thiazol-2-yl)pyrrolo[1,2-d][1,2,4]triazin-4(3H)-one] | 1.34 | 1.44 | 1.22 | > 100 µM | – | –
16 | 1.34 ± 0.07 µM | 0.61 ± 0.12 µM | 1.27 ± 0.24 µM | COc1cccc2c1C(=O)c1c(O)c3c(c(O)c1C2=O)C[C@@](O)(C(=O)CO)C[C@@H]3O[C@H]1C[C@H](N)[C@H](O)[C@H](C)O1 [Dox, doxorubicin, reference compound] | 2.6 | 5.83 | 2.8 | 3.56 ± 0.02 µM | – | –
17 | 61.8 ± 1.42 µM | 79.5 ± 1.13 µM | 52.8 ± 0.79 µM | O=c1n(-c2nc(-c3ccc(C(F)(F)F)cc3)cs2)ncc2cccn12 [Compound 19, 3-(4-(4-(trifluoromethyl)phenyl)thiazol-2-yl)pyrrolo[1,2-d][1,2,4]triazin-4(3H)-one] | 2.41 | 1.87 | 2.82 | > 100 µM | – | –
18 | 83.71 ± 0.81 µM | > 100 µM | > 100 µM | O=c1n(-c2nc(-c3cccs3)cs2)ncc2cccn12 [Compound 32, 3-(4-(thiophen-2-yl)thiazol-2-yl)pyrrolo[1,2-d][1,2,4]triazin-4(3H)-one] | 2.43 | 1.68 | 2.00 | > 100 µM | – | –
19 | 91.2 ± 1.06 µM | > 100 µM | > 100 µM | O=c1n(-c2nc(-c3ccco3)cs2)ncc2cccn12 [Compound 31, 3-(4-(furan-2-yl)thiazol-2-yl)pyrrolo[1,2-d][1,2,4]triazin-4(3H)-one] | 1.91 | 1.67 | 1.69 | > 100 µM | – | –
